Results from patent US20260070902A1, “SULFONYL DERIVATIVES AS CCR6 INHIBITORS” (Hoffmann-La Roche Inc., priority 2022, published 2026).
pIC50: −log10 of the molar value.

How the values were obtained:
Format in all cases: cell-based
Human CD4+ T cells = test: CD4+ T cells chemotaxis assay towards CCL20; settings: 3 h; for pIC50: Homo sapiens, CD4+ T cell, relative -Log IC50, human CD4+ T cells stimulated with anti-CD3 and anti-CD28, migration towards 150 ng/ml CCL20
Excerpt: CD4+ T Cells Chemotaxis Assay Towards CCL20
Human CD4+ T cells were isolated from buffy coats of healthy donors using a CD4+ T Cell Isolation Kit (Miltenyi Biotec130-096-533). Isolated T cells were stimulated overnight with anti-CD3 and anti-CD28 antibodies (Biolegend 300314/302934) in growth medium (RPMI1640, 10% heat-inactivated FBS, 1× pen/strep (Gibco 15140)). For the chemotaxis assay, Corning Transwell plates were used with a pore size of 5 m (Corning 3388). T cells were counted and diluted to 6*10^6 cells/ml in chemotaxis medium (RPMI1640, 1% BSA, pen/strep). Compounds were four-fold serially diluted in DMSO. Further dilutions were made in chemotaxis medium. Cells were incubated with test compounds for 30 min at 37° C. prior to initiation of the assay (3*10^6 cells/ml). Final DMSO concentration in the assay was 0.2%. Wells of the Transwell plates were filled with 200 μl chemotaxis medium containing 150 ng/ml CCL20 (R&D systems 360-MP). 50 μl of the cell/compound suspension was added to the inserts of the Transwell plates (150,000 cells/insert). The Transwell plates were placed in an incubator at 37° C., 5% CO2 for 3 h. After 3 h, the number of migrated cells was quantified using CellTiter Glo (Promega). Percentage inhibition values were calculated based on the low and high signal obtained with 0.2% DMSO in chemotaxis medium without and with CCL20, respectively. The relative −Log IC50 was determined with GraphPad Prism 9 using a four-parameter dose-response model.

human CCR6 [1] = biological target: T1, human CCR6 (Homo sapiens, UniProt P51684); test: Human CCR6-CRE reporter assay; set-up: The second construct contained the open reading frame of human CCR6 in the pUNO1 backbone; host or cells: 293FT cells; settings: relative -Log IC50; 293FT cells transfected with human CCR6 and CRE-luciferase reporter; 6 μM Forskolin, 6 nM CCL20; 5 h
T1 sequence (P51684 1-374): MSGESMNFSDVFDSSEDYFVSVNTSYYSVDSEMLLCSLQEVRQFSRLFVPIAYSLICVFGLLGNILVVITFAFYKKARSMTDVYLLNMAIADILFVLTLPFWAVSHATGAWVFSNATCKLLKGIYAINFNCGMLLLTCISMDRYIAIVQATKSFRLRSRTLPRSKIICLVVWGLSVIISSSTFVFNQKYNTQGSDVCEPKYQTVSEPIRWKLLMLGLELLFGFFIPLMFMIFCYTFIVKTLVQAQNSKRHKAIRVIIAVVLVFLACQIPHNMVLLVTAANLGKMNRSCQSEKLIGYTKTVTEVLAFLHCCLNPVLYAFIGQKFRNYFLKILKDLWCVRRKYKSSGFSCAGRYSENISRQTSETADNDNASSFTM
How it was run: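 293FT cells transiently co-transfected with human CCR6 and a CRE-luc2P reporter, used 48 h later. Compounds incubated with cells in medium containing 6 μM Forskolin and 6 nM CCL20 (assay-medium levels), 0.1% DMSO final, 5 h at 37° C; luminescence read, relative −Log IC50 from four-parameter fit.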

human CCR6 [2] = biological target: T1, human CCR6; test: CHO-K1 CCR6 chemotaxis assay towards CCL20; settings: relative -Log IC50; CHO-K1 cells overexpressing human CCR6; migration towards 100 ng/ml CCL20; 4 h
How it was run: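 Human CCR6-overexpressing CHO-K1 cells (2*10^6 cells/ml) were preincubated 30 min at 37 °C with compound (0.2% DMSO), then allowed to migrate 4 h through 8 µm Transwell pores toward 100 ng/ml CCL20. Migrated cells were counted by CellTiter Glo. −Log IC50 came from four-parameter fits normalised to DMSO without/with CCL20.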

Compound | pIC50 (Human CD4+ T cells) | pIC50 (human CCR6 [1]) | pIC50 (human CCR6 [2]) | CD4+ T-cell chemotaxis (Human CD4+ T cells; relative -Log IC50, human CD4+ T cells stimulated with anti-CD3 and anti-CD28, migration towards 150 ng/ml CCL20)
O=S(=O)(c1ccc(-c2ccc3nnc([C@@H]4CCCN4)n3c2)cc1)[C@H]1CC[C@H](Nc2ccc(S(F)(F)(F)(F)F)cc2)CC1 [Example 161, 4-(pentafluoro-λ^6-sulfanyl)-N-[trans-4-(4-{3-[(2S)-pyrrolidin-2-yl]-[1,2,4]triazolo[4,3-a]pyridin-6-yl}benzenesulfonyl)cyclohexyl]aniline] | 8.10 | 7.10 | – | –
O=S(=O)(c1ccc(-c2ccc3nccn3c2)cc1)[C@H]1CC[C@H](Nc2ccc(S(F)(F)(F)(F)F)cc2)CC1 [Example 12, 4-(pentafluoro-λ^6-sulfanyl)-N-[trans-4-(4-{imidazo[1,2-a]pyridin-6-yl}benzenesulfonyl)cyclohexyl]aniline] | 7.80 | 7.10 | – | –
O=S(=O)(c1ccc(-c2ccc3nccn3c2)nc1)N1CCC(Nc2ccc(S(F)(F)(F)(F)F)cc2)CC1 [Example 77, 1-[(6-{imidazo[1,2-a]pyridin-6-yl}pyridin-3-yl)sulfonyl]-N-[4-(pentafluoro-λ^6-sulfanyl)phenyl]piperidin-4-amine] | 6.90 | 6.30 | – | –
O=c1[nH]nc2ccc(-c3ccc(S(=O)(=O)N4CCC(Nc5ccc(S(F)(F)(F)(F)F)cc5)CC4)cc3)cn12 [Example 32, 6-{4-[(4-{[4-(pentafluoro-λ^6-sulfanyl)phenyl]Amino}piperidin-1-yl)sulfonyl]phenyl}-2H,3H-[1,2,4]triazolo[4,3-a]pyridin-3-one] | 8.40 | 7.00 | – | –
CC(C)c1nnc2ccc(-c3ccc(S(=N)(=O)[C@H]4CC[C@H](Nc5ccc(S(F)(F)(F)(F)F)cc5)CC4)cc3)cn12 (single isomer, unassigned; (+)) [Example 163, (+)-{4-[3-(propan-2-yl)-[1,2,4]triazolo[4,3-a]pyridin-6-yl]phenyl}[trans-4-{[4-(pentafluoro-λ^6-sulfanyl)phenyl]amino}cyclohexyl](imino)-λ^6-sulfanone] | – | 7.10 | – | 7.8
O=S(=O)(c1ccc(N2CCC3(CC2)COC3)cc1)N1CCC(Nc2ccc(S(F)(F)(F)(F)F)cc2)CC1 [Example 136, 1-(4-{2-oxa-7-azaspiro[3.5]nonan-7-yl}benzenesulfonyl)-N-[4-(pentafluoro-λ^6-sulfanyl)phenyl]piperidin-4-amine] | 6.70 | 6.90 | – | –
NC(=O)c1ccc(-c2ccc(S(=O)(=O)[C@H]3CC[C@H](Nc4ccc(S(F)(F)(F)(F)F)cc4)CC3)cc2)nc1 [Example 49, 6-(4-{[trans-4-{[4-(pentafluoro-λ^6-sulfanyl)phenyl]Amino}cyclohexyl]sulfonyl}phenyl)pyridine-3-carboxamide] | – | 7.10 | 6.30 | –
Nc1cc(-c2ccc(S(=O)(=O)[C@H]3CC[C@H](Nc4ccc(S(F)(F)(F)(F)F)cc4)CC3)cc2)cn2ccnc12 [Example 159, 6-(4-{[trans-4-{[4-(pentafluoro-λ^6-sulfanyl)phenyl]amino}cyclohexyl]sulfonyl}phenyl)imidazo[1,2-a]pyridin-8-amine] | – | 7.20 | 7.90 | –
O=C1NCCc2cc(-c3ccc(S(=O)(=O)[C@H]4CC[C@H](Nc5ccc(S(F)(F)(F)(F)F)cc5)CC4)cc3)ccc21 [Example 61, 6-(4-{[trans-4-{[4-(pentafluoro-λ^6-sulfanyl)phenyl]Amino}cyclohexyl]sulfonyl}phenyl)-1,2,3,4-tetrahydroisoquinolin-1-one] | – | 6.90 | 7.50 | –
O=S(=O)(c1ccc(-c2cc(F)c3nccn3c2)cc1)[C@H]1CC[C@H](Nc2ccc(S(F)(F)(F)(F)F)cc2)CC1 [Example 152, 4-(pentafluoro-λ^6-sulfanyl)-N-[trans-4-(4-{8-fluoroimidazo[1,2-a]pyridin-6-yl}benzenesulfonyl)cyclohexyl]aniline] | – | 7.00 | 8.00 | –
N=S(=O)(c1ccc(-c2cccc(C(N)=O)c2)cc1)[C@H]1CC[C@H](Nc2ccc(S(F)(F)(F)(F)F)cc2)CC1 (stereo partly drawn) [Example 99, 4′-{[trans-4-{[4-(pentafluoro-λ^6-sulfanyl)phenyl]Amino}cyclohexyl]sulfonimidoyl}-[1,1′-biphenyl]-3-carboxamide] | – | 6.70 | 6.30 | –
N=S(=O)(c1ccc(-c2ccc3nccn3c2)cc1)[C@H]1CC[C@H](Nc2ccc(S(F)(F)(F)(F)F)cc2)CC1 (single isomer, unassigned; (-)) [Example 129, (−)-(4-{imidazo[1,2-a]pyridin-6-yl}phenyl)[trans-4-{[4-(pentafluoro-λ^6-sulfanyl)phenyl]Amino}cyclohexyl](imino)-λ^6-sulfanone] | – | 6.70 | 6.50 | –

More lines, in order of rising pIC50 (human CCR6 [1]), values ahead:

pIC50 (Human CD4+ T cells) | pIC50 (human CCR6 [1]) | pIC50 (human CCR6 [2]) | Compound | CD4+ T-cell chemotaxis (Human CD4+ T cells; relative -Log IC50, human CD4+ T cells stimulated with anti-CD3 and anti-CD28, migration towards 150 ng/ml CCL20)
8.60 | 7.20 | – | CC(C)c1nnc2cnc(-c3ccc(S(=O)(=O)N4CCC(Nc5ccc(S(F)(F)(F)(F)F)cc5)CC4)cc3)cn12 [Example 140, N-[4-(pentafluoro-λ^6-sulfanyl)phenyl]-1-{4-[3-(propan-2-yl)-[1,2,4]triazolo[4,3-a]pyrazin-6-yl]benzenesulfonyl}piperidin-4-amine] | –
9.00 | 7.20 | – | Cc1n[nH]c2ncc(-c3ccc(S(=O)(=O)[C@H]4CC[C@H](Nc5ccc(S(F)(F)(F)(F)F)cc5)CC4)cc3)cc12 [Example 150, 4-(pentafluoro-λ^6-sulfanyl)-N-[trans-4-(4-{3-methyl-1H-pyrazolo[3,4-b]pyridin-5-yl}benzenesulfonyl)cyclohexyl]aniline] | –
– | 7.20 | 6.40 | CN(C)C(=O)c1cccc(-c2ccc(S(=O)(=O)[C@H]3CC[C@H](Nc4ccc(S(F)(F)(F)(F)F)cc4)CC3)cc2)c1 [Example 19, N,N-dimethyl-4′-{[trans-4-{[4-(pentafluoro-λ^6-sulfanyl)phenyl]Amino}cyclohexyl]sulfonyl}-[1,1′-biphenyl]-3-carboxamide] | –
– | 7.30 | 6.90 | CC(C)c1nnc2ccc(-c3ccc(S(=O)(=O)N4CCC(Nc5cccc(S(F)(F)(F)(F)F)c5)CC4)cc3)cn12 [Example 84, N-[3-(pentafluoro-λ^6-sulfanyl)phenyl]-1-{4-[3-(propan-2-yl)-[1,2,4]triazolo[4,3-a]pyridin-6-yl]benzenesulfonyl}piperidin-4-amine] | –
– | 7.40 | 7.40 | CNC(=O)c1cc(-c2ccc(S(=O)(=O)[C@H]3CC[C@H](Nc4ccc(S(F)(F)(F)(F)F)cc4)CC3)cc2)ccn1 [Example 48, N-methyl-4-(4-{[trans-4-{[4-(pentafluoro-λ^6-sulfanyl)phenyl]Amino}cyclohexyl]sulfonyl}phenyl)pyridine-2-carboxamide] | –
– | 7.40 | 7.30 | CC(C)c1cnc2ccc(-c3ccc(S(=O)(=O)N4CCC(Nc5ccc(S(F)(F)(F)(F)F)cc5)CC4)cc3)cn12 [Example 29, N-[4-(pentafluoro-λ^6-sulfanyl)phenyl]-1-{4-[3-(propan-2-yl)imidazo[1,2-a]pyridin-6-yl]benzenesulfonyl}piperidin-4-amine] | –
– | 7.50 | 7.90 | CNC(=O)c1cccc(-c2ccc(S(=O)(=O)[C@H]3CC[C@H](Nc4ccc(S(F)(F)(F)(F)F)cc4)CC3)cc2)c1 [Example 21, N-methyl-4′-{[trans-4-{[4-(pentafluoro-λ^6-sulfanyl)phenyl]Amino}cyclohexyl]sulfonyl}-[1,1′-biphenyl]-3-carboxamide] | –
